Assay results from US10077261B2, “Imidazolin-5-one derivative useful as FASN inhibitors for the treatment of cancer” (Janssen Pharmaceutica NV, priority 2012, dated 2018).

Key:
A2780 ovarian cells [1] = experiment: A2780 ovarian cell proliferation assay in lipid reduced medium, without palmitate (MTT); format: cell-based; settings: Homo sapiens, A2780, 96 h; read-out: pIC50 A2780 Ovarian Cell, Without Palmitate (converted)
[2] = molecular target: T1, hFASN enzyme (full length) (Homo sapiens, UniProt P49327); experiment: Fatty Acid Synthase (FASN) inhibition scintillation proximity assay; format: biochemical; settings: for inhibition at 10 µM: read-out: Human FASN % inhibition @ 10 μM, 10 μM test compound; for IC50: read-out: Human FASN pIC50 (converted)
T1 construct: 10 μL hFASN enzyme (full length, 300 ng, purified in house); made in house
Summary of the method: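 Full-length in-house purified enzyme (300 ng) was tested in 100 mM KH2PO4 pH 7.5, 1 mM DTT with ³H-acetyl-CoA and malonyl-CoA as substrates; compounds ranged 0.01–30 μM. Reactions were stopped with streptavidin imaging beads, read by LEADseeker at 610 nm, and fitted to a 4-parameter logistic curve.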

A2780 ovarian cells [3] = experiment: A2780 ovarian cell proliferation assay in lipid reduced medium, with palmitate (MTT); format: cell-based; settings: Homo sapiens, A2780, 96 h; read-out: pIC50 A2780 Ovarian Cell, With Palmitate (converted)
Summary of the method: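 Seeded cells were switched next day to lipid-reduced serum, exposed to compound and 25 μM palmitate complexed with fatty-acid-free BSA, and incubated 96 h. Proliferation was then determined by MTT absorbance at 544 nm, with a best-fit curve of signal against concentration.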

[4] = molecular target: Fatty Acid Synthase Keto-reductase Domain (FASN KR) (Homo sapiens, UniProt P49327); experiment: Fatty Acid Synthase keto-reductase domain (FASN KR) inhibition, NADPH oxidation at 340 nm
Sequence of Fatty Acid Synthase Keto-reductase Domain (FASN KR) (P49327 whole entry, the tested form may be a part): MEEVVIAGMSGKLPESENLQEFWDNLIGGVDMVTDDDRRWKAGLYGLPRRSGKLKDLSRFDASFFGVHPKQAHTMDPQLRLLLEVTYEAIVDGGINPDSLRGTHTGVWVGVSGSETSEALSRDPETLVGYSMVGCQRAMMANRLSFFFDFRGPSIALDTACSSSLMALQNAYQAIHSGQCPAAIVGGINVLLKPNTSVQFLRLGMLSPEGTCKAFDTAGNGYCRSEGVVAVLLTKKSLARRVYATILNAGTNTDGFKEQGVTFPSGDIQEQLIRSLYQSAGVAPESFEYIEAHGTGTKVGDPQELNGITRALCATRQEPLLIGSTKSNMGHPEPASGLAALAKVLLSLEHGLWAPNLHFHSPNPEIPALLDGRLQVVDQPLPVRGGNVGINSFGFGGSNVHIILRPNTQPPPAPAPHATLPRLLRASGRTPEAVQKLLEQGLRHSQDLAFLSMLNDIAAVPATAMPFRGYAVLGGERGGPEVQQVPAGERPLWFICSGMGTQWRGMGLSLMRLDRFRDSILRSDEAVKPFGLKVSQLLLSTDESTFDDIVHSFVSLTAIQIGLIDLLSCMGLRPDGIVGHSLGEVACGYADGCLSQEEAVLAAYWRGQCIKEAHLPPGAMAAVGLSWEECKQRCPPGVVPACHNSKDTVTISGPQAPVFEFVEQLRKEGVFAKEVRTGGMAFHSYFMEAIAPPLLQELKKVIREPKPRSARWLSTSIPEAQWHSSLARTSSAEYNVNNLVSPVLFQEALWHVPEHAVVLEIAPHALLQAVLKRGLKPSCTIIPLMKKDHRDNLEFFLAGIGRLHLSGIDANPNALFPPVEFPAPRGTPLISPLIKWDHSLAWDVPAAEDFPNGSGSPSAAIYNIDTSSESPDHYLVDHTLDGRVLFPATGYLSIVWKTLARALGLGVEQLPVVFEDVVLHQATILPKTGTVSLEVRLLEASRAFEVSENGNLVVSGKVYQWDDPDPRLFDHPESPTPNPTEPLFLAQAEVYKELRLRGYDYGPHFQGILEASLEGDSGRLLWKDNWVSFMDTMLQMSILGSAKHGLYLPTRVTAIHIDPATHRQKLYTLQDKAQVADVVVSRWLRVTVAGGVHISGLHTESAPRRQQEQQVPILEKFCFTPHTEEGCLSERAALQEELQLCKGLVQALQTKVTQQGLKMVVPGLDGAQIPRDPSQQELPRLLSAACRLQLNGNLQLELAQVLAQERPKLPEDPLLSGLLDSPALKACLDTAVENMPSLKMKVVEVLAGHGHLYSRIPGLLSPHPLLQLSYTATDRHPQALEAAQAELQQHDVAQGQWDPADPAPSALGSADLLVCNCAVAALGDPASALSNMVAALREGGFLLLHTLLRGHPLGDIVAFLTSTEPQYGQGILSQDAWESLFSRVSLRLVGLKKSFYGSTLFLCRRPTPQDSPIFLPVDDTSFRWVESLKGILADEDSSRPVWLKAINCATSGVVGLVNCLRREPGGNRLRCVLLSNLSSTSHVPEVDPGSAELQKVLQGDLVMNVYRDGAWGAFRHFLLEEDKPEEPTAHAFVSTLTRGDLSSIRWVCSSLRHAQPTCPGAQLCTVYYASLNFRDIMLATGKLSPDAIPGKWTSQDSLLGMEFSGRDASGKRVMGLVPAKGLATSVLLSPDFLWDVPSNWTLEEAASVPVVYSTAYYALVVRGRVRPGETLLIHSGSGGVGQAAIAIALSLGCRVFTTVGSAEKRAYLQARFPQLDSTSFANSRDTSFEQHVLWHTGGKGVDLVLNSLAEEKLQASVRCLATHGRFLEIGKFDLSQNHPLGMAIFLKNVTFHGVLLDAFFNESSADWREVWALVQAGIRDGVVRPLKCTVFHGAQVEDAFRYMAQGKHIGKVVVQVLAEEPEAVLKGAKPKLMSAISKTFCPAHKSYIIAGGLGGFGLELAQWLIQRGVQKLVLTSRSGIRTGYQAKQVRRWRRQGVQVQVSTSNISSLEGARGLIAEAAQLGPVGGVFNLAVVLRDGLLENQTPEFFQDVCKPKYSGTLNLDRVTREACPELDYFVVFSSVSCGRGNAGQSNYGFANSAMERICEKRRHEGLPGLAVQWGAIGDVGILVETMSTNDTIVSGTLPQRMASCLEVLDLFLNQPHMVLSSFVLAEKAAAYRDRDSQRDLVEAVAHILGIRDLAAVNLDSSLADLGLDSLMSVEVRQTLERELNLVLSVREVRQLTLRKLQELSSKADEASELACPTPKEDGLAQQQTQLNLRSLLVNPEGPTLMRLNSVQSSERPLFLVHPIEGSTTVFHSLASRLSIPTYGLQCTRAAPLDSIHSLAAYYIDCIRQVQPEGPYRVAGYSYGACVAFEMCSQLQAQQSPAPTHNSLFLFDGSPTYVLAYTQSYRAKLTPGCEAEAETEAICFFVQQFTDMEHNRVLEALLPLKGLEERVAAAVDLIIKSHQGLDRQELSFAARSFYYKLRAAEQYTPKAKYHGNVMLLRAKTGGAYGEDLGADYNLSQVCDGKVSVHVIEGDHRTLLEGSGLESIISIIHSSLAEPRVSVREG
Protocol: After 20 minutes incubation at room temperature the plate was measured again (T2).
The decrease in absorbance was calculated as (Absorbance before incubation T1)−(Absorbance following incubation T2).
A plot of Controlmin versus test compound concentration was fitted to a 4-parameter logistic curve using a non-linear least squares regression method.

T1 sequence (P49327 whole entry): as the sequence (P49327 whole entry, the tested form may be a part) above

| Structure (SMILES) | IC50 (A2780 ovarian cells [1]) [nM] | inhibition at 10 µM [2] [%] | IC50 [2] [nM] | IC50 (A2780 ovarian cells [3]) [nM] | IC50 [4] [nM] |
| --- | --- | --- | --- | --- | --- |
| O=C(C1CC1)N1CC[C@@H](CN2C(=O)C3(CCCC3)N=C2c2ccc(-c3cccc4[nH]ccc34)cc2)C1 [compound 68, 3-{[(3R)-1-(Cyclopropylcarbonyl)pyrrolidin-3-yl]methyl}-2-[4-(1H-indol-4-yl)phenyl]-1,3-diazaspiro[4.4]non-1-en-4-one] | 339 | 107 | 63.1 | > 10000 | 162 |
| O=C(C1CC1)N1CC[C@H](CN2C(=O)C3(CC3)N=C2c2ccc(-c3ccc4[nH]ccc4c3)cc2)C1 [compound 210, (S)-5-(4-(1H-indol-5-yl)phenyl)-6-((1-(cy7clopropanecarbonyl)pyrrolidin-3-yl)methyl)-4,6-diazaspiro[2.4]hept-4-en-7-one] | 52.5 | 103 | 89.1 | > 10000 | 170 |
| O=C(C1CC1)N1CC[C@@H](CN2C(=O)C3(CCCC3)N=C2c2ccc(-c3ccc4[nH]ccc4c3)cc2F)C1 [compound 845, (R)-3-((1-(cyclopropanecarbonyl)pyrrolidin-3-yl)methyl)-2-(2-fluoro-4-(1H-dinol-5-yl)phenyl)-1,3-diazaspiro[4.4]non-1-en-4-one] | 11 | 106 | 20 | > 10000 | 25.1 |
| N#Cc1ccc(-c2ccc(C3=NC4(CC4)C(=O)N3C[C@@H]3CCN(C(=O)C4CC4)C3)cc2)cc1 [compound 48, 4′-(6-{[(3R)-1-(Cyclopropylcarbonyl)pyrrolidin-3-yl]methyl}-7-oxo-4,6-diazaspiro[2.4]hept-4-en-5-yl)biphenyl-4-carbonitrile] | 182 | 108 | 97.7 | > 10000 | 282 |
| O=C(C1CC1)N1CCC(CN2C(=O)C3(CCCC3)N=C2c2ccc(-c3ccc4[nH]ccc4c3)cc2)CC1 [compound 76, 3-{[1-(Cyclopropylcarbonyl)piperidin-4-yl]methyl}-2-[4-(1H-indol-5-yl)phenyl]-1,3-diazaspiro[4.4]non-1-en-4-one] | 513 | 99.2 | 129 | > 10000 | 794 |
| Cc1cc(-c2ccc3c(c2)OCO3)ccc1C1=NC2(CCCC2)C(=O)N1C[C@@H]1CCN(C(=O)C2CC2)C1 [compound 883, (R)-2-(4-(benzo[d][1,3]dioxol-5-yl)-2-methylphenyl)-3-((1-(cyclopropanecarbonyl)pyrrolidin-3-yl)methyl)-1,3-diazaspiro[4.4]non-1-en-4-one] | ~2450 | 100 | 269 | > 10000 | 1050 |
| O=C(C1CC1)N1CC(CN2C(=O)C3(CC3)N=C2c2ccc(-c3ccc4[nH]ncc4c3)cc2)C1 [compound 51, 6-{[1-(Cyclopropylcarbonyl)azetidin-3-yl]methyl}-5-[4-(1H-indazol-5-yl)phenyl]-4,6-diazaspiro[2.4]hept-4-en-7-one] | 123 | 102 | 79.4 | > 10000 | 162 |
| COC(=O)N1CCC2(CC1)N=C(c1ccc(-c3ccc4[nH]ccc4c3)cc1)N(CC1CN(C(=O)C3CC3)C1)C2=O [compound 17, Methyl 3-{[1-(cyclopropylcarbonyl)azetidin-3-yl]methyl}-2-[4-(1H-indol-5-yl)phenyl]-4-oxo-1,3,8-triazaspiro[4.5]dec-1-ene-8-carboxylate] | 398 | 97 | 229 | > 10000 | 347 |
| O=C(C1CC1)N1CCC(CN2C(=O)C3(CCCC3)N=C2c2ccc(-c3ccc4occc4c3)cc2)CC1 [compound 75, 1-[4-(1-Benzofuran-5-yl)phenyl]-3-{[1-(cyclopropylcarbonyl)piperidin-4-yl]methyl}-1,3-diazaspiro[4.4]non-1-en-4-one] | 5890 | 92.7 | 513 | > 10000 | 2140 |
| Cc1cc2cc(-c3ccc(C4=NC5(CC5)C(=O)N4C[C@@H]4CCN(C(=O)C5CC5)C4)cc3C)ccc2o1 [compound 388, 6-{[(3R)-1-(Cyclopropylcarbonyl)pyrrolidin-3-yl]methyl}-5-[3-methyl-4-(2-methyl-1-benzofuran-5-yl)phenyl]-4,6-diazaspiro[2.4]hept-4-en-7-one] | ~2450 | 99 | 355 | > 10000 | 1100 |
| COc1cccc(-c2ccc(C3=NC4(CC4)C(=O)N3C[C@@H]3CCN(C(=O)C4CC4)C3)cc2)c1 [compound 113, 6-{[(3R)-1-(Cyclopropylcarbonyl)pyrrolidin-3-yl]methyl}-5-(3′-methoxybiphenyl-4-yl)-4,6-diazaspiro[2.4]hept-4-en-7-one] | ~1780 | 109 | 117 | > 10000 | 1070 |
| Cc1cc(-c2ccc3occc3c2)ccc1C1=NC2(CC2)C(=O)N1CC1CN(C(=O)C2CC2)C1 [compound 287, 5-(4-(benzofuran-5-yl)-2-methylphenyl)-6-((1-(cyclopropanecarbonyl)azetidin-3-yl)methyl)-4,6-diazaspiro[2.4]hept-4-en-7-one] | ~282 | 110 | 43.7 | > 10000 | 166 |
| O=C(C1CC1)N1CC[C@H](CN2C(=O)C3(CC3)N=C2c2ccc(-c3ccc4sccc4c3)cc2)C1 [compound 211, (S)-5-(4-(benzo[b]thiophen-5-yl)phenyl)-6-((1-(cyclopropanecarbonyl)pyrrolidin-3-yl)methyl)-4,6-diazaspiro[2.4]hept-4-en-7-one] | ~708 | 107 | 85.1 | > 10000 | 200 |
| Cc1cc(-c2ccc(Cl)cc2Cl)ccc1C1=NC2(CCCC2)C(=O)N1C[C@@H]1CCN(C(=O)C2CC2)C1 [compound 94, 3-{[(3R)-1-(Cyclopropylcarbonyl)pyrrolidin-3-yl]methyl}-2-(2′,4′-dichloro-3-methylbiphenyl-4-yl)-1,3-diazaspiro[4.4]non-1-en-4-one] | ~2140 | 111 | 145 | > 10000 | 891 |
| Cc1cc(-c2ccc3[nH]ccc3c2)ccc1C1=NC2(CCCC2)C(=O)N1C[C@@H]1CCN(C(=O)C2CC2)C1 [compound 73, 3-{[(3R)-1-(Cyclopropylcarbonyl)pyrrolidin-3-yl]methyl}-2-[4-(1H-indol-5-yl)-2-methylphenyl]-1,3-diazaspiro[4.4]non-1-en-4-one] | ~28.8 | 111 | 33.1 | > 10000 | 64.6 |
| O=C(C1CC1)N1CC[C@@H](CN2C(=O)C3(CC3)N=C2c2ccc(-c3ccc4[nH]ccc4c3)cc2)C1 [compound 31, 6-{[(3R)-1-(Cyclopropylcarbonyl)pyrrolidin-3-yl]methyl}-5-[4-(1H-indol-5-yl)phenyl]-4,6-diazaspiro[2.4]hept-4-en-7-one] | 28.8 | 107 | 21.9 | > 10000 | 35.5 |
| O=C(C1CC1)N1CC[C@@H](CN2C(=O)C3(CCCC3)N=C2c2ccc(-c3cccc4[nH]ncc34)cc2)C1 [compound 92, 3-{[(3R)-1-(Cyclopropylcarbonyl)pyrrolidin-3-yl]methyl}-2-[4-(1H-indazol-4-yl)phenyl]-1,3-diazaspiro[4.4]non-1-en-4-one] | 45.7 | 111 | 51.3 | > 10000 | 77.6 |
| Cc1cc(-c2ccc3occc3c2)ccc1C1=NC2(CCCC2)C(=O)N1C[C@@H]1CCN(C(=O)C2CC2)C1 [compound 72, 2-[4-(1-Benzofuran-5-yl)-2-methylphenyl]-3-{[(3R)-1-(cyclopropylcarbonyl)pyrrolidin-3-yl]methyl}-1,3-diazaspiro[4.4]non-1-en-4-one] | 1380 | 106 | 47.9 | > 10000 | 174 |
| O=C(C1CC1)N1CC[C@@H](CN2C(=O)C3(CC3)N=C2c2ccc(-c3ccc4ccncc4c3)cc2)C1 [compound 30, 6-{[(3R)-1-(Cyclopropylcarbonyl)pyrrolidin-3-yl]methyl}-5-(4-isoquinolin-7-ylphenyl)-4,6-diazaspiro[2.4]hept-4-en-7-one] | 380 | 108 | 57.5 | > 10000 | 282 |
| O=C(C1CC1)N1CC[C@@H](CN2C(=O)C3(CCCC3)N=C2c2ccc(-c3ccc(Cl)cc3)cc2)C1 [compound 82] | 3720 | 105 | 214 | > 10000 | 1200 |
| O=C(C1CC1)N1CC[C@@H](CN2C(=O)C3(CC3)N=C2c2ccc(-c3ccc(F)cc3)cc2)C1 [compound 105, 6-{[(3R)-1-(Cyclopropylcarbonyl)pyrrolidin-3-yl]methyl}-5-(4′-fluorobiphenyl-4-yl)-4,6-diazaspiro[2.4]hept-4-en-7-one] | 955 | 104 | 100 | > 10000 | 501 |
